Where two headings read alike, the source gives them in different places.
Experiments:
[1] = Rat pharmacokinetics; format: in vivo; settings: male, Sprague-Dawley, plasma; for Cmax: read-out: Cmax
Description: Pharmacokinetic (PK) data was obtained in rats to assess the bioavailability of test compound. In particular, the following PK parameters were calculated: bioavailability as measured by area under the Concentration/Time curve (AUC), fraction of dose available (% F; further defined below), clearance (CL), volume of distribution (Vd), and half-life (t½). […] Three rats were used per dosing group. Blood was collected over a 24-hr period. The time points for blood collection after intravenous administration were: 0, 2.5, 5, 10, 15, 30, 45 min, 1, 2, 4, 8, 12, and 24 hrs; time points for blood collection after p.o. administrations were: 0, 5, 15, 30, 45 min, 1, 2, 3, 4, 8, 12, and 24 hrs. Plasma samples were analyzed for compound levels by LC-MS/MS at PPD. Raw data was analyzed by non-compartmental analysis in Win-nonLin to calculate VD, % F, CL, and t1/2.

[2] = target: recombinant human GCase (rhGCase; Cerezyme®) (Homo sapiens (Human), UniProt P04062, R534H); experiment: In vitro enzyme inhibition assay (4-MU-β-D-Glc substrate), inhibition constants; format: biochemical
Chain of recombinant human GCase (rhGCase; Cerezyme®) (P04062 40-536 R534H limits assumed): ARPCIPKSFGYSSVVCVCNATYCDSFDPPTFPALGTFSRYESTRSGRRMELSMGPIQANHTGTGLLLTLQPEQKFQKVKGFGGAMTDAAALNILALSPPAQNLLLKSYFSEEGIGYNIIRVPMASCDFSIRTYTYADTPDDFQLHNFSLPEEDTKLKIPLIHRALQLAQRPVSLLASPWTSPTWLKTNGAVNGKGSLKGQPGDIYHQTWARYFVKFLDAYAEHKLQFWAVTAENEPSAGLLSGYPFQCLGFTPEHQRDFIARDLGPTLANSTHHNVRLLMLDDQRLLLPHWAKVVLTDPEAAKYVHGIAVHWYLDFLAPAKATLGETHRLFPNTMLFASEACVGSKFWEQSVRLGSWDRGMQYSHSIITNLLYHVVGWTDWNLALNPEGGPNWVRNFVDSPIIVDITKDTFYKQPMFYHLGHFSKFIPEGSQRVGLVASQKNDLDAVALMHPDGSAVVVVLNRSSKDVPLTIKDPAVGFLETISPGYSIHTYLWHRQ
Description: The binding affinity (defined here by Ki binding constant) of GCase for novel compounds of the present invention were empirically determined using enzyme inhibition assays. In brief, the enzyme inhibition assays used monitored the ability of a test compound to bind and prevent the hydrolysis of a fluorogenic substrate in a concentration-dependent mariner. Specifically, the enzyme activity of recombinant human GCase (rhGCase; Cerezyme®, Genzyme Corp.) was measured using the 4-methylumbelliferyl-β-D-glucopyranoside (4-MU-β-D-Glc) fluorogenic substrate in the absence or in the presence of varying amounts of each test compound. […] The enzyme inhibition assays were performed at both pH 7.0 (endoplasmic reticulum pH) and at pH 5.2 (lysosomal pH) to gain insight into the binding affinity (i.e., potency) of compounds for GCase in the endoplasmic reticulum and lysososome.
Various concentrations of test compounds were prepared in buffer “M” consisting of 50 mM sodium phosphate buffer with 0.25% sodium taurocholate at pH 7.0 and pH 5.2. Enzyme (Cerezyme®, a recombinant form of the human enzyme β-glucocerebrosidase) was also diluted in the same buffer “M” at pH 7.0 and pH 5.2. […] Five microliters of diluted enzyme was added to 15 μl of the various inhibitor concentrations or buffer “M” alone and incubated at 37° C. for 1 hour with 50 μl of the substrate preparation to assess β-glucosidase activity at pH 7.0 and pH 5.2. […] Fluorescence was measured on a plate reader for 1 sec/well using 355 nm excitation and 460 nm emission.

[3] = Compound concentration in tissue of mice of the GCase enhancement study; format: in vivo, mouse; settings: 9 doses, 24-hour washout
Description: The dosing solutions were prepared in water. Compounds were administered over 2 weeks as follows: week 1, Mon-Fri (On), Sat-Sun (Off); week 2, Mon-Thu (On); necropsy on Friday. Thus, a total of 9 doses (dosing solutions prepared fresh every day) were given to each mouse, with a 24-hour washout between the last dose and necropsy.
Plasma was collected by spinning blood at 2700 g for 10 minutes at 4° C. Liver, spleen, lung, and brain tissues were removed, washed in cold PBS, blotted dry, flash frozen on dry ice, and stored at −80° C. until analysis. GCase levels were measured by homogenizing approximately 50 mg tissue in 500 μL McIlvane (MI) buffer (100 mM sodium citrate, 200 mM sodium phosphate dibasic, 0.25% sodium taurocholate, and 0.1% Triton X-100, pH 5.2) at pH 5.2 for 3-5 seconds on ice with a micro homogenizer. Homogenates were then incubated at room temperature without and with 2.5 mM conduritol-B-epoxide (CBE) for 30 min. Finally, 3.7 mM 4-methylumbeliferryl-β-glucoside (4-MUG) substrate was added and incubated at 37° C. for 60 min. […] Fluorescence was measured on a plate reader for 1 sec/well using 355 nm excitation and 460 nm emission. Total protein was determined in lysates using the MicroBCA kit according to the manufacturer's instructions. A 4-methylumbelliferone (4-MU) standard curve ranging from 1.0 nM to 50 μM was run in parallel for conversion of raw fluorescence data to absolute GCase activity (in the presence and absence of CBE) and expressed as nanomoles of 4-MU released per milligram of protein per hour (nmol/mg protein/hr). GCase levels and protein levels were calculated using Microsoft Excel (Redmond, Wash.) and GraphPad Prism version 4.02.

[4] = IV, 3 mg/kg free base, AUC0-12 hr, read-out: AUClast (hr*ng/ml), AUC0-12 hr
[5] = IV, 3 mg/kg free base, read-out: t1/2 (converted)
[6] = PO, 10 mg/kg free base, read-out: % F
[7] = PO, 10 mg/kg free base, read-out: t1/2 (converted)
[8] = PO, 30 mg/kg free base, AUC0-24 hr, read-out: AUClast (hr*ng/ml), AUC0-24 hr
[9] = PO, 30 mg/kg free base, read-out: % F
[10] = PO, 30 mg/kg free base, read-out: t1/2 (converted)
[11] = PO, 100 mg/kg free base, AUC0-24 hr, read-out: AUClast (hr*ng/ml), AUC0-24 hr
[12] = PO, 100 mg/kg free base, read-out: % F
[13] = PO, 100 mg/kg free base, read-out: t1/2 (converted)
[14] = intravenous, oral, summary of Tables 4A-D, read-out: half-life
[15] = po, summary of Tables 4A-D, read-out: oral bioavailability
[16] = pH 5.2, Cheng-Prusoff from IC50, read-out: Ki (μM) pH 5.2
[17] = pH 5.2, read-out: IC50 (μM) pH 5.2
[18] = pH 5.2, repeated in Table 3A, read-out: Ki pH 5.2
[19] = pH 5.2, repeated in Table 3B, read-out: Ki pH 5.2
[20] = pH 7.0, Cheng-Prusoff from IC50, read-out: Ki (μM) pH 7.0
[21] = pH 7.0, read-out: IC50 (μM) pH 7.0

Q: With `O[C@@H]1[C@@H](Cc2ccccc2)CNC[C@H]1O` [(3R,4R,5S)-5-benzyl-piperidine-3,4-diol] as the compound, how does the Vd ([1]; IV, 3 mg/kg free base) read?
A: 12.6 ± 1.79 L/kg

Q: What about the clearance ([1]; IV, 3 mg/kg free base) of the same compound?
A: 85.8 mL/min/kg

Q: What about the AUC(0-t) [1, 4] of the same compound?
A: 592 ± 60.9 ng·h/mL

Q: What about the Cmax ([1]; IV, 3 mg/kg free base) of the same compound?
A: 969 ± 104 ng/mL

Q: What about the half-life [1, 5] of the same compound?
A: 1.7 ± 1.5 h

Q: And the AUC(0-t) ([1]; PO, 10 mg/kg free base, AUC0-24 hr, read-out: AUClast (hr*ng/ml), AUC0-24 hr)?
A: 1200 ± 46.4 ng·h/mL

Q: And the bioavailability [1, 6]?
A: 61.7 ± 2.4%

Q: And the Cmax ([1]; PO, 10 mg/kg free base)?
A: 641 ± 48.7 ng/mL

Q: And the half-life [1, 7]?
A: 3.86 ± 0.6 h

Q: What about the AUC(0-t) [1, 8] of the same compound?
A: 3690 ± 71.5 ng·h/mL

Q: What about the bioavailability [1, 9] of the same compound?
A: 62.3 ± 1.2%

Q: And the Cmax ([1]; PO, 30 mg/kg free base)?
A: 1700 ± 133 ng/mL

Q: What about the half-life [1, 10] of the same compound?
A: 3.8 ± 0.19 h

Q: And the AUC(0-t) [1, 11]?
A: 13500 ± 2180 ng·h/mL

Q: And the bioavailability [1, 12]?
A: 68.3 ± 10.8%

Q: And the Cmax ([1]; PO, 100 mg/kg free base)?
A: 7140 ± 1360 ng/mL

Q: What about the half-life [1, 13] of the same compound?
A: 2.9 ± 0.11 h

Q: And the half-life [1, 14]?
A: 1 to 4 h

Q: And the bioavailability [1, 15]?
A: 50 to 100%

Q: What about the Ki [2, 16] of the same compound?
A: 0.273 ± 0.012 µM

Q: What about the IC50 [2, 17] of the same compound?
A: 0.659 ± 0.028 µM

Q: What about the Ki [2, 18] of the same compound?
A: 0.273 ± 0.012 µM

Q: What about the Ki [2, 19] of the same compound?
A: 0.273 ± 0.012 µM

Q: What about the Ki [2, 20] of the same compound?
A: 0.067 ± 0.005 µM

Q: And the IC50 [2, 21]?
A: 0.127 ± 0.01 µM

Q: Which “Compound concentration in tissue” value ([3]; brain, 10 mg/kg FBE p.o.) does the source give for `Cl.O[C@H]1[C@H](O)CNC[C@@H]1C(F)F` [Cmpd 6, (3R,4R,5S)-5-(Difluoromethyl)piperidine 3,4-diol Hydrochloride] here?
A: 55 nmol/kg

Q: What about the “Compound concentration in tissue” value ([3]; brain, 100 mg/kg FBE p.o.) of the same compound?
A: 301 nmol/kg

Q: And the “Compound concentration in tissue” value ([3]; spleen, 10 mg/kg FBE p.o.)?
A: 100 nmol/kg

Q: And the “Compound concentration in tissue” value ([3]; spleen, 100 mg/kg FBE p.o.)?
A: 435 nmol/kg

Q: And the Vd ([1]; IV, 3 mg/kg free base)?
A: 2.61 L/kg

Q: And the clearance ([1]; IV, 3 mg/kg free base)?
A: 25.9 mL/min/kg

Q: And the AUC(0-t) [1, 4]?
A: 2040 ng·h/mL

Q: And the Cmax ([1]; IV, 3 mg/kg free base)?
A: 2320 ng/mL

Q: What about the half-life [1, 5] of the same compound?
A: 1.1 h

Q: What about the AUC(0-t) ([1]; PO, 10 mg/kg free base, AUC0-12 hr, read-out: AUClast (hr*ng/ml), AUC0-12 hr) of the same compound?
A: 6710 ng·h/mL

Q: And the bioavailability [1, 6]?
A: 106%

Q: And the Cmax ([1]; PO, 10 mg/kg free base)?
A: 3360 ng/mL

Q: What about the half-life [1, 7] of the same compound?
A: 2.58 h

Q: What about the AUC(0-t) [1, 8] of the same compound?
A: 21700 ng·h/mL

Q: What about the bioavailability [1, 9] of the same compound?
A: 101%

Q: What about the Cmax ([1]; PO, 30 mg/kg free base) of the same compound?
A: 10000 ng/mL

Q: What about the half-life [1, 10] of the same compound?
A: 2.75 h

Q: And the AUC(0-t) [1, 11]?
A: 79400 ng·h/mL

Q: And the bioavailability [1, 12]?
A: 121%

Q: And the Cmax ([1]; PO, 100 mg/kg free base)?
A: 33200 ng/mL

Q: What about the half-life [1, 13] of the same compound?
A: 2.41 h

Q: And the half-life [1, 14]?
A: 1 to 4 h

Q: What about the bioavailability [1, 15] of the same compound?
A: 50 to 100%

Q: For `CC[C@@H](F)[C@H]1CNC[C@@H](O)[C@@H]1O.Cl` [(3R,4R,5S)-5-((R)-1-fluoropropyl)-piperidine-3,4-diol hydrochloride], which “Compound concentration in tissue” value ([3]; brain, 10 mg/kg FBE p.o.) is on record?
A: BLQ(2) (BLQ < 2.2 nmol/kg)

Q: And the “Compound concentration in tissue” value ([3]; brain, 100 mg/kg FBE p.o.)?
A: 38 nmol/kg

Q: And the “Compound concentration in tissue” value ([3]; spleen, 10 mg/kg FBE p.o.)?
A: 21 nmol/kg

Q: And the “Compound concentration in tissue” value ([3]; spleen, 100 mg/kg FBE p.o.)?
A: 60 nmol/kg

Q: What about the Ki [2, 16] of the same compound?
A: 0.121 ± 0.0026 µM

Q: And the IC50 [2, 17]?
A: 0.291 ± 0.006 µM

Q: And the Ki [2, 18]?
A: 0.121 ± 0.0026 µM

Q: What about the Ki [2, 19] of the same compound?
A: 0.121 ± 0.0026 µM

Q: What about the Ki [2, 20] of the same compound?
A: 0.031 ± 0.0015 µM

Q: What about the IC50 [2, 21] of the same compound?
A: 0.06 ± 0.0029 µM

— patent publication US8604206B2, “Compositions for preventing and/or treating degenerative disorders of the central nervous system” (Amicus Therapeutics, Inc., priority 2009, dated 2013)
